Measured values from patent US20040241860A1, “Method of breeding glyphosate resistant plants” (Advanta Technology Limited, priority 1998, published 2004).

Experiments:
Format in all cases: in vivo, corn
[1] = test system: heterozygous resistant plants (Rr, Glyphosate-resistance event GA21); test: Foliar glyphosate spray of putative heterozygous resistant plants, plant mortality (Example 1)
Source text: (§1) Progeny of a cross between a homozygous resistant plant (RR) and a homozygous susceptible plant (rr) were planted at the Garst Research Centre near Slater, Iowa, and at the Hawaii Research Centre near Kunia, Hi. It was expected that none of the progeny would segregate for resistance to foliar applications of glyphosate. To test this, the progeny growing at the IA test site were sprayed with glyphosate at a rate of 64 oz per acre during the V5 and V6 stages of growth (26 days after planting). At the same time and rate, several plants in a row of known susceptible plants were sprayed. All of the sprayed plots were examined for plant mortality 7 days after spraying. As expected, all of the susceptible check plants were dead and while all of the putative heterozygous resistant plants were alive (Table 1).
(§2) A second application of 32oz per acre was applied to the heterozyous resistant plants at the V7 to V8 stage of growth (9 days later). These plants comprised the “Sprayed” class in subsequent experiments. In HI, none of the plants were sprayed with glyphosate and these plants comprised the “Unsprayed” class in subsequent experiments. At both locations, crosses were made between the heterozygous resistant plants and homozygous susceptible plants.

[2] = test system: homozygous susceptible plants (rr); test: Foliar glyphosate spray of known susceptible check plants, plant mortality (Example 1)
Source text: as §1

[3] = test system: progeny of crosses between heterozygous resistant plants and homozygous susceptible plants; test: Evaluation of progeny from Sprayed and Unsprayed classes: counts of resistant and susceptible plants after glyphosate spray (Example 2); conditions: progeny sprayed 64 oz per acre V3-V4, counted ten days post-application
Source text: as §2
Progeny of the crosses from each class were planted at the HI location. All progeny plants from each class were sprayed with glyphosate at a rate of 64 oz per acre during the V3 to V4 stages of growth. Ten days post-application, counts of resistant and susceptible plants were made for each class. The expected segregation, 1:1 resistant to susceptible, was compared to the observed segregation for each class (Table 2).

[4] = progeny of Unsprayed class (parents not sprayed), 182 plants

O=C(O)CNCP(=O)(O)O [glyphosate]
Observed Segregation ([1]; class Heterozygous Resistant, 64 oz per acre at V5 and V6 stages (26 days after planting), examined 7 days after spraying): All Resistant | plant mortality ([1]; putative heterozygous resistant plants, 64 oz per acre, V5 and V6, 7 days after spraying): alive | Observed Segregation ([2]; class Homozygous Susceptible, 64 oz per acre at the same time and rate, examined 7 days after spraying): All Susceptible | plant mortality ([2]; susceptible check plants, 64 oz per acre, 7 days after spraying): dead | Observed Segregation: Resistant plants ([3]; progeny of Sprayed class (parents 64 oz per acre V5-V6 plus 32 oz per acre V7-V8), 504 plants): 504 | Observed Segregation: Resistant plants [3, 4]: 100 | Observed Segregation: Susceptible plants [3, 4]: 82
